From US8329904B2, “Azacyclic derivatives” (Hoffmann-La Roche Inc., priority 2009, dated 2012) come the findings set out here.

The structures appear in SMILES notation. pIC50: −log10 of the molar value.

This experiment concerns the target T1, human HSL (Homo sapiens, UniProt Q05469).
T1 construct: overlapping PCR to generate a full length human HSL ORF with a 3′-His6 tag; His6 (C); made in house; host or cells: High 5 insect cells (baculovirus, pFast-BAC)
T1 sequence (Q05469 1-1076): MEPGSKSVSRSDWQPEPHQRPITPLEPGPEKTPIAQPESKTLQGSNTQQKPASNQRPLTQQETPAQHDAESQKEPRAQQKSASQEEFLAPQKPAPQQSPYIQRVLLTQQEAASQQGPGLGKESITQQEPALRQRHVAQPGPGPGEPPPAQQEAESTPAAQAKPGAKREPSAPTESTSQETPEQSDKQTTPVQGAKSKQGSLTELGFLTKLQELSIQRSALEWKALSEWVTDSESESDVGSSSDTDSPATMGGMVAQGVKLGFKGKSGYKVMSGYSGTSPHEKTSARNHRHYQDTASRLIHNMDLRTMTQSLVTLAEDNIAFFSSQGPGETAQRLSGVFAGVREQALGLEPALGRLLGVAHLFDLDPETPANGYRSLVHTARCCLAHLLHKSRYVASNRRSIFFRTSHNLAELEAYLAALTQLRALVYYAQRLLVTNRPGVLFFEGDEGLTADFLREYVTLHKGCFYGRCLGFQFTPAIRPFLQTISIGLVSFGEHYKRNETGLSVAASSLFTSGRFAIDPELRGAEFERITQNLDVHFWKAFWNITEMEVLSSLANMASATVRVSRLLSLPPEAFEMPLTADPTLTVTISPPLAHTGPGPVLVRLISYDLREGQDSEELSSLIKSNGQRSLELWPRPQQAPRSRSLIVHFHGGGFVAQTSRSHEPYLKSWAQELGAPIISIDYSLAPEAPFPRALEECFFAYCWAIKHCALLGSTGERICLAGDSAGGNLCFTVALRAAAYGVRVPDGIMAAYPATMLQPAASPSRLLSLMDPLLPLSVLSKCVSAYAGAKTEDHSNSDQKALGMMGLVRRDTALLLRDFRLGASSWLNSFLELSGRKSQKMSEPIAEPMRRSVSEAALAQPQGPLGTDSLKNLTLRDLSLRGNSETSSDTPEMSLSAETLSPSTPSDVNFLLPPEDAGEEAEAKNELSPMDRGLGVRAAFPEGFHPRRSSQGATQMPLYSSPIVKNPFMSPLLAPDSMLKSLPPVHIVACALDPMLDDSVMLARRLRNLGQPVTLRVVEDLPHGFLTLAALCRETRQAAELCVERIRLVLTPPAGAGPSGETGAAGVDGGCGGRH
The experiment is described as follows: Human Hormone-Sensitive Lipase (HSL) Enzyme Inhibition Assay. The experiment is classed as biochemical. To be noted: colorimetric assay, 2,3-dimercapto-1-propanol tributyrate (DMPT) substrate, 37° C. for 20 minutes, absorbance at 405 nm; read-out: HSL hum IC50. A digest of the protocol:
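Colorimetric thioester hydrolysis: compounds in DMSO series mixed with DMPT (1.5 mM) in MOPS pH 7.2 with BSA, then baculovirus-expressed His6-tagged full-length human HSL added, 37° C, 20 min. DTNB plus detergents added, 15 min room temperature, absorbance at 405 nm.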
What is called pIC50 is −log10 of the IC50, conventionally taken in molar units. Regarding `O=C1N(c2ccc(CC(F)(F)F)cc2)CCC12CCN(S(=O)(=O)c1ccccc1C(F)(F)F)CC2` [Example 73, 2-[4-(2,2,2-Trifluoro-ethyl)-phenyl]-8-(2-trifluoromethyl-benzenesulfonyl)-2,8-diaza-spiro[4.5]decan-1-one], the pIC50 is 7.10.

On to `CCc1ccc(N2CCC3(CCN(S(=O)(=O)c4cccs4)CC3)C2=O)cc1` [Example 29, 2-(4-Ethyl-phenyl)-8-(thiophene-2-sulfonyl)-2,8-diaza-spiro[4.5]decan-1-one], for which the pIC50 is 7.30.

Consider `CC(Oc1ccc(N2CCC3(CCN(S(=O)(=O)c4ccccc4C(F)(F)F)CC3)C2=O)cc1)C(F)(F)F` (stereo not shown) [Example 101], for which the pIC50 is 7.40.

Regarding `CN(CCc1ccccc1)C(=O)N1CCC2(CC1)CCN(c1ccc(OC(F)(F)F)cc1)C2=O` [Example 282, 1-Oxo-2-(4-trifluoromethoxy-phenyl)-2,8-diaza-spiro[4.5]decane-8-carboxylic acid methyl-phenethyl-amide], the pIC50 is 6.89.

As for `O=C(CCC1CC1)N1CCC2(CC1)CCN(c1ccc(OC(F)(F)F)cc1)C2=O` [Example 13, 8-(3-Cyclopropyl-propionyl)-2-(4-trifluoromethoxy-phenyl)-2,8-diaza-spiro[4.5]decan-1-one], the pIC50 was 6.82.

With `CC(C)(C)OCC(=O)N1CCC2(CC1)CCN(c1ccc(OC(F)(F)F)cc1)C2=O` [Example 218, 8-(2-tert-Butoxy-acetyl)-2-(4-trifluoromethoxy-phenyl)-2,8-diaza-spiro[4.5]decan-1-one], the pIC50 was 7.00.

With `CC(Oc1ccc(N2CCC3(CCN(S(=O)(=O)c4ccccc4C(F)(F)F)CC3)C2=O)cc1)C(F)(F)F` (stereo not shown) [Example 100, 8-(2-Trifluoromethyl-benzenesulfonyl)-2-[4-(2,2,2-trifluoro-1-methyl-ethoxy)-phenyl]-2,8-diaza-spiro[4.5]decan-1-one], the pIC50 is 7.40.

Consider `O=C1N(c2ccc(OC(F)(F)F)cc2)CCCC12CCN(S(=O)(=O)c1ccccc1)CC2` [Example 9, 9-Benzenesulfonyl-2-(4-trifluoromethoxy-phenyl)-2,9-diaza-spiro[5.5]undecan-1-one], for which the pIC50 was 7.30.

Take `CC(C)(C)c1ccc(CCN2CCC3(CCN(S(=O)(=O)c4ccccc4Cl)CC3)C2=O)cc1` [Example 238, 2-[2-(4-tert-Butyl-phenyl)-ethyl]-8-(2-chloro-benzenesulfonyl)-2,8-diaza-spiro[4.5]decan-1-one]: the pIC50 is 7.00.

Regarding `O=C1N(c2ccc(CCC3CC3)cc2)CCC12CCN(S(=O)(=O)c1ccccc1OC(F)(F)F)CC2` [Example 147, 2-[4-(2-Cyclopropyl-ethyl)-phenyl]-8-(2-trifluoromethoxy-benzenesulfonyl)-2,8-diaza-spiro[4.5]decan-1-one], the pIC50 is 7.22.

For the molecule `O=C1N(c2ccc(CO)cc2)CCC12CCN(S(=O)(=O)c1ccccc1Cl)CC2` [Example 141, 8-(2-Chloro-benzenesulfonyl)-2-(4-hydroxymethyl-phenyl)-2,8-diaza-spiro[4.5]decan-1-one], the pIC50 is 6.44.

As for `CC(O)(c1ccc(N2CCC3(CCN(S(=O)(=O)C4CC4)CC3)C2=O)cc1)C(F)(F)F` (stereo not shown) [Example 171, 8-(Cyclopropylsulfonyl)-2-(4-(1,1,1-trifluoro-2-hydroxypropan-2-yl)phenyl)-2,8-diazaspiro[4.5]decan-1-one], the pIC50 was 6.26.

With `O=C(CCl)N1CCC2(CC1)CCN(c1ccc(OC(F)(F)F)cc1)C2=O` [Example 225, 8-(2-Chloro-acetyl)-2-(4-trifluoromethoxy-phenyl)-2,8-diaza-spiro[4.5]decan-1-one], the pIC50 was 6.49.

As for `C=Cc1ccc(N2CCC3(CCN(S(=O)(=O)c4ccccc4Cl)CC3)C2=O)cc1` [Example 91, 8-(2-Chloro-benzenesulfonyl)-2-(4-vinyl-phenyl)-2,8-diaza-spiro[4.5]decan-1-one], the pIC50 was 7.40.

`O=C1N(c2ccc(C(O)C(F)F)cc2)CCC12CCN(S(=O)(=O)c1ccccc1C(F)(F)F)CC2` (racemic) [Example 176, (rac)-2-(4-(2,2-difluoro-1-hydroxyethyl)phenyl)-8-(2-(trifluoromethyl)phenylsulfonyl)-2,8-diazaspiro[4.5]decan-1-one]: the pIC50 is 7.40.

For the molecule `CC(Oc1ccc(N2CCC3(CCN(C(=O)C4(C)CC4(Cl)Cl)CC3)C2=O)cc1)C(F)(F)F` (stereo not shown) [Example 113, 8-(2,2-Dichloro-1-methyl-cyclopropanecarbonyl)-2-[4-(2,2,2-trifluoro-1-methyl-ethoxy)-phenyl]-2,8-diaza-spiro[4.5]decan-1-one], the pIC50 is 6.85.

On to `CC(O)(c1ccc(N2CCC3(CCN(S(=O)(=O)c4ccccc4Cl)CC3)C2=O)cc1)C(F)(F)F` (stereo not shown) [Example 155, 8-(2-Chloro-benzenesulfonyl)-2-[4-(2,2,2-trifluoro-1-hydroxy-1-methyl-ethyl)-phenyl]-2,8-diaza-spiro[4.5]decan-1-one], for which the pIC50 was 7.70.

Regarding `CCc1ccc(N2CCC3(CCN(S(=O)(=O)N4CCOCC4)CC3)C2=O)cc1` [Example 21, 2-(4-Ethyl-phenyl)-8-(morpholine-4-sulfonyl)-2,8-diaza-spiro[4.5]decan-1-one], the pIC50 was 6.57.

For `CCN(Cc1ccccc1F)C(=O)N1CCC2(CC1)CCN(c1ccc(OC(F)(F)F)cc1)C2=O` [Example 306, 1-Oxo-2-(4-trifluoromethoxy-phenyl)-2,8-diaza-spiro[4.5]decane-8-carboxylic acid ethyl-(2-fluoro-benzyl)-amide], the pIC50 is 6.80.

On to `CC(O)c1ccc(N2CCC3(CCN(S(=O)(=O)c4ccccc4Cl)CC3)C2=O)cc1` (stereo not shown) [Example 153, 8-(2-Chloro-benzenesulfonyl)-2-[4-(1-hydroxy-ethyl)-phenyl]-2,8-diaza-spiro[4.5]decan-1-one], for which the pIC50 is 7.00.

For the molecule `CCc1ccc(CCN2CCC3(CCN(S(=O)(=O)c4ccccc4Cl)CC3)C2=O)cc1` [Example 237, 8-(2-Chloro-benzenesulfonyl)-2-[2-(4-ethyl-phenyl)-ethyl]-2,8-diaza-spiro[4.5]decan-1-one], the pIC50 is 7.40.

As to `Cc1cccc(Cl)c1S(=O)(=O)N1CCC2(CCN(c3ccc(OC(F)(F)F)cc3)C2=O)CC1` [Example 312, 8-(2-Chloro-6-methyl-benzenesulfonyl)-2-(4-trifluoromethoxy-phenyl)-2,8-diaza-spiro[4.5]decan-1-one], the pIC50 is 7.10.

Consider `CC(C)CS(=O)(=O)N1CCC2(CCN(c3ccc(C(O)C(F)F)cc3)C2=O)CC1` (stereo not shown) [Example 177, 2-(4-(2,2-difluoro-1-hydroxyethyl)phenyl)-8-(isobutylsulfonyl)-2,8-diazaspiro[4.5]decan-1-one], for which the pIC50 was 6.35.

As for `O=C1N(c2ccc(OC(F)(F)F)cc2)CCC12CCN(S(=O)(=O)c1ccccc1C(F)(F)F)CC2` [Example 68, 2-(4-Trifluoromethoxy-phenyl)-8-(2-trifluoromethyl-benzenesulfonyl)-2,8-diaza-spiro[4.5]decan-1-one], the pIC50 was 7.40.

With `CS(=O)(=O)Oc1ccc(N2CCC3(CCN(S(=O)(=O)c4cccs4)CC3)C2=O)cc1` [Example 59, Methanesulfonic acid 4-[1-oxo-8-(thiophene-2-sulfonyl)-2,8-diaza-spiro[4.5]dec-2-yl]-phenyl ester], the pIC50 was 7.52.

As for `O=C1N(CCCc2ccccc2)CCC12CCN(S(=O)(=O)c1ccccc1Cl)CC2` [Example 241, 8-(2-Chloro-benzenesulfonyl)-2-(3-phenyl-propyl)-2,8-diaza-spiro[4.5]decan-1-one], the pIC50 is 7.05.

`O=C(N1CCCCCC1)N1CCC2(CC1)CCN(c1ccc(OC(F)(F)F)cc1)C2=O` [Example 271, 8-(Azepane-1-carbonyl)-2-(4-trifluoromethoxy-phenyl)-2,8-diaza-spiro[4.5]decan-1-one]: the pIC50 is 6.66.

Take `O=C1N(c2ccc(OC(F)(F)F)cc2)CCC12CCN(S(=O)(=O)CC1CCCO1)CC2` (stereo not shown) [Example 214, 8-(Tetrahydro-furan-2-ylmethanesulfonyl)-2-(4-trifluoromethoxy-phenyl)-2,8-diaza-spiro[4.5]decan-1-one]: the pIC50 was 7.00.
